In assay [1] the test system is T1, Kinesin-like protein KIF11 (Homo sapiens), P52732 [D130V].
T1 sequence (whole entry): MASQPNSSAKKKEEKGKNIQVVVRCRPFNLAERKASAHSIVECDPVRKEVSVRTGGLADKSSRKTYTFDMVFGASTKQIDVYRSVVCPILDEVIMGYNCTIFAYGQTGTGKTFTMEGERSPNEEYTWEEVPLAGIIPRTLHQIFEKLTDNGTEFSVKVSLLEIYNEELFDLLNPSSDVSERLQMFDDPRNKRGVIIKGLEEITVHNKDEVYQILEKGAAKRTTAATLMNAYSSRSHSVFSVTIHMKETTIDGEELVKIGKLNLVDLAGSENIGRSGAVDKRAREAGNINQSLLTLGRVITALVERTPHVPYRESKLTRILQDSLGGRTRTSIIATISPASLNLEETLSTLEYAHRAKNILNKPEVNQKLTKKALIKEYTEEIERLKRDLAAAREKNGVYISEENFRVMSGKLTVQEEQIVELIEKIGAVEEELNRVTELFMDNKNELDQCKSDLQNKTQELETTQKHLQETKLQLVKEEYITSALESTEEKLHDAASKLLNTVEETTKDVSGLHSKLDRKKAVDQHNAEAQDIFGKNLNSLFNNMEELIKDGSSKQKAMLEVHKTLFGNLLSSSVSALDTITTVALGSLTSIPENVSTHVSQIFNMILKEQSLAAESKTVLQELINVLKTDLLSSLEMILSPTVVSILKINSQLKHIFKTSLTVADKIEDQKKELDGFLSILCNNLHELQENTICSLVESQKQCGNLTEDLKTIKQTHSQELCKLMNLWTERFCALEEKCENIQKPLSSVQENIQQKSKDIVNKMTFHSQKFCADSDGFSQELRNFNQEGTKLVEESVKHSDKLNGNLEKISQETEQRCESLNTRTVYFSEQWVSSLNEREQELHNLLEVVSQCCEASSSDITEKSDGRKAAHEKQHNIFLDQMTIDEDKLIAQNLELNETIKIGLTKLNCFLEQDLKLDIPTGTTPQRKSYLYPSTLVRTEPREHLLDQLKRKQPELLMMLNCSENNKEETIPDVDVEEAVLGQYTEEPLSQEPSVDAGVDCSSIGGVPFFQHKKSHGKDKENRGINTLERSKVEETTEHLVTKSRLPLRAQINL
Kind of assay: Competitive inhibition of human KSP D130V mutant with respect to ATP using varying ATP levels in presence of saturating levels of microtubule by Lineweaver-Burke plot.

The test system of assay [2] is HCT-116. The experiment in a line: Antiproliferative activity against 3x IC95 biaryl selected human HCT116 cells expressing Kinesin-like protein KIF11 D130V mutant after 72 hrs by Cell titer Glo assay. Type of assay: functional, cell-based. The note with it: HCT-116, 72 h.
The test system of assay [3] is HCT-116. The experiment in a line: Antiproliferative activity against IC50 biaryl selected drug-resistant against human HCT116 cells after 72 hrs by Cell titer Glo assay. The following applies: HCT-116, 72 h. Type of assay: functional, cell-based. (In general: In ATP-based viability assays light output follows the ATP content of the culture.)
For assay [4], the system named is HCT-116. Kind of assay: Antiproliferative activity against IC95 biaryl selected drug-resistant against human HCT116 cells after 72 hrs by Cell titer Glo assay. Type of assay: functional, cell-based. The note with it: HCT-116, 72 h.
Assay [5] relates to HCT-116. The experiment in a line: Antiproliferative activity against IC50 biaryl selected human HCT116 cells expressing Kinesin-like protein KIF11 D130V mutant after 72 hrs by Cell titer Glo assay. The note with it: HCT-116, 72 h. Type of assay: functional, cell-based.
The test system of assay [6] is HCT-116. The experiment in a line: Antiproliferative activity against 3x IC95 biaryl selected drug-resistant against human HCT116 cells after 72 hrs by Cell titer Glo assay. Type of assay: functional, cell-based. The following applies: HCT-116, 72 h.
Assay [7] relates to HCT-116. The experiment in a line: Antiproliferative activity against IC95 biaryl selected human HCT116 cells expressing Kinesin-like protein KIF11 D130V mutant after 72 hrs by Cell titer Glo assay. The note with it: HCT-116, 72 h. Type of assay: functional, cell-based.
For another assay, the system named is SK-OV-3. The experiment in a line: Induction of monopolar spindle formation in human SKOV3 cells. Type of assay: functional, cell-based.
Assay [8] relates to HCT-116. The experiment in a line: Antiproliferative activity against human HCT116 cells expressing Kinesin-like protein KIF11 D130V mutant after 72 hrs by Cell titer Glo assay. Type of assay: functional, cell-based. The following applies: HCT-116, 72 h.
Assay [9] in a line: Inhibition of KSP A356 mutant in 3x IC95 biaryl selected human HCT116 cells using varying ATP levels in presence of saturating levels of microtubule by Lineweaver-Burke plot. Type of assay: cell-based. The note with it: hct-116.
The subject of assay [10] is HCT-116. Kind of assay: Induction of monopolar spindle formation in human HCT116 cells. Type of assay: functional, cell-based.
In assay [11] the target is Kinesin-like protein KIF11 (Homo sapiens, UniProt P52732, I299F). Kind of assay: Inhibition of human KSP I299F mutant in 6x IC95 biaryl selected human HCT116 cells using varying ATP levels in presence of saturating levels of microtubule by Lineweaver-Burke plot. Type of assay: cell-based, HCT-116.
The subject of assay [12] is HCT-116. Kind of assay: Antiproliferative activity against human HCT116 cells after 72 hrs by Cell titer Glo assay. Type of assay: functional, cell-based. The following applies: HCT-116, 72 h.

The values below come from ChEMBL document CHEMBL1221208, “ATP-competitive inhibitors of the mitotic kinesin KSP that function via an allosteric mechanism” (Nat Chem Biol, 2007).

For orientation: IC50 means the concentration that gives 50% inhibition. As a reminder, the Ki is the equilibrium dissociation constant of an inhibitor or competing ligand from its target.

Active and inactive are the calls of the source. The calls are words filed in the database; no cut-off is given here.

Kinesin-like protein KIF11, sequence (P52732 whole entry I299F): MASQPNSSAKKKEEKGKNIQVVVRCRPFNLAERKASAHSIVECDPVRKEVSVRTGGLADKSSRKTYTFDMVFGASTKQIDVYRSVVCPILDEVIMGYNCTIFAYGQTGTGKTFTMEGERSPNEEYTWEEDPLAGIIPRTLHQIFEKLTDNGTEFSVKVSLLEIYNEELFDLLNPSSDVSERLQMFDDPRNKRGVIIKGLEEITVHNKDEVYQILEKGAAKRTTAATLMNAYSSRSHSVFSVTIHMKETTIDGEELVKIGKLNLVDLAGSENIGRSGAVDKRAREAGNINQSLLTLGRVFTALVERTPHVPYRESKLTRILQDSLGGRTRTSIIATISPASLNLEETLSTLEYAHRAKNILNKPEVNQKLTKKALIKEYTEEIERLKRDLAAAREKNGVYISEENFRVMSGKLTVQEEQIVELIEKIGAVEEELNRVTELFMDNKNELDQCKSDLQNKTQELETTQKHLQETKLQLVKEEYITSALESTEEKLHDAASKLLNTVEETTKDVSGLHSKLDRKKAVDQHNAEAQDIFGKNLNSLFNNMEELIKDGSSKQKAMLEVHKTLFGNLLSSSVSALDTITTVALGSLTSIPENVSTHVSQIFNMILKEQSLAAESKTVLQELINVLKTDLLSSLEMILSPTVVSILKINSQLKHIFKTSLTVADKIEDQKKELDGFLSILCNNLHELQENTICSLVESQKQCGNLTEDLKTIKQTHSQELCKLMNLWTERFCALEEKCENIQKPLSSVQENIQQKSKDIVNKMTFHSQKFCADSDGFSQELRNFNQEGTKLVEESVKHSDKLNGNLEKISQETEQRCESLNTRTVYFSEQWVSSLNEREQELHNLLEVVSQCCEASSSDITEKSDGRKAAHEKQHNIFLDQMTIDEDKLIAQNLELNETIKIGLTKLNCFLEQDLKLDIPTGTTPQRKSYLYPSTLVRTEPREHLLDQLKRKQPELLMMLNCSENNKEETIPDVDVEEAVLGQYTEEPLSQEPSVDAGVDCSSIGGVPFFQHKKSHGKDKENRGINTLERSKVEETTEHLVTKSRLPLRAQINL

Take `NC(=O)Nc1ccc(-c2ccc(C(F)(F)F)cc2)cc1F`: the inhibition result in assay [1] was “Active”.
`O=C1CCc2cc(-c3ccc(C(F)(F)F)cc3)ccc2N1`: the concentration for half-maximal inhibition (IC50) in the assay on HCT-116 [2] is 6.9 nM; in the assay on HCT-116 [3] it was 36 nM; in the assay on HCT-116 [4] it was 162 nM; in the assay with HCT-116 [5], 0.83 nM; with HCT-116 [6], 2090 nM; in the assay on HCT-116 [7], 3.3 nM. Further, the results for the IC50 in the assay with HCT-116 [8] and in the assay with HCT-116 [12] were 0.45 nM and 36 nM, respectively. The result in the assay with SK-OV-3 and in the assay with HCT-116 [10] was Active. Further, in assay [1], the inhibition result is “Active”. The inhibition constant Ki amounted to 109 nM in assay [9] and 66 nM in [11].
